Series [1] relates to Rat. In words: concentration in plasma after dosing. The conditions noted are these: dosed: Wyeth-14643, 2.0 mg/kg, oral, Male, Sprague-Dawley.
The subject of series [2] is Rat. In words: concentration in plasma after dosing. Particulars: 1 h; dosed: Wyeth-14643; 5.0 mg/kg; oral; Male; Sprague-Dawley.
Series [3] concerns Rat. In words: concentration in plasma after dosing. Particulars: 2 h; dosed: Wyeth-14643; 2.0 mg/kg; iv; Male; Sprague-Dawley.
Series [4] has as its system Rat. In words: concentration in plasma after dosing. The conditions noted are these: 2.5 min; dosed: Wyeth-14643; 2.0 mg/kg; iv; Male; Sprague-Dawley.
The subject of series [5] is Rat. In words: concentration in thymus after dosing. Particulars: 40 min; dosed: Bis 2-Chloroethoxy Methane; 20 mg/kg; iv; Male; F344.
Series [6] deals with Rat. In words: concentration in liver after dosing. Particulars: 4 h; dosed: Bis 2-Chloroethoxy Methane; 20 mg/kg; iv; Male; F344.
The test system of series [7] is Rat. In words: concentration in liver after dosing. Particulars: 2 h; dosed: Bis 2-Chloroethoxy Methane; 20 mg/kg; iv; Male; F344.
The test system of series [8] is Rat. In words: concentration in plasma after dosing. Particulars: dosed: Bis 2-Chloroethoxy Methane, 40 mg/kg, iv, Male, Harlan Sprague Dawley.
For series [9], the system named is Rat. In words: concentration in heart after dosing. Particulars: 4 h; dosed: Bis 2-Chloroethoxy Methane; 20 mg/kg; iv; Female; F344.
The test system of series [10] is Rat. In words: concentration in heart after dosing. The conditions noted are these: 1 h; dosed: Bis 2-Chloroethoxy Methane; 20 mg/kg; iv; Male; F344.
In series [11] the test system is Rat. In words: concentration in liver after dosing. Particulars: 2 h; dosed: Bis 2-Chloroethoxy Methane; 20 mg/kg; iv; Male; F344. The source holds these as a separate data set.
Series [12] deals with Rat. In words: concentration in heart after dosing. Particulars: 4 h; dosed: Bis 2-Chloroethoxy Methane; 20 mg/kg; iv; Female; F344. This is another data set of the same source.
For series [13], the system named is Rat. In words: concentration in heart after dosing. Particulars: 1 h; dosed: Bis 2-Chloroethoxy Methane; 20 mg/kg; iv; Female; F344.
Series [14] deals with Rat. In words: concentration in heart after dosing. Particulars: 10 min; dosed: Bis 2-Chloroethoxy Methane; 20 mg/kg; iv; Female; F344.
Series [15] deals with Rat. In words: concentration in thymus after dosing. Particulars: 5 h; dosed: Bis 2-Chloroethoxy Methane; 20 mg/kg; iv; Female; F344.
Series [16] has as its system Rat. In words: concentration in plasma after dosing. The conditions noted are these: dosed: Fluorotelomer alcohol 8+2, 12 mg/kg, iv, Male, F344.
The subject of series [17] is Rat. In words: concentration in brain after dosing. The conditions noted are these: 1 h; dosed: Fluorotelomer alcohol 8+2; 24 mg/kg; oral; Male; Harlan Sprague Dawley.
Series [18] concerns Rat. In words: concentration in brain after dosing. Particulars: 3 h; dosed: Fluorotelomer alcohol 8+2; 24 mg/kg; oral; Male; Harlan Sprague Dawley.
Series [19] has as its system Rat. In words: concentration in kidney after dosing. The conditions noted are these: 3 h; dosed: Fluorotelomer alcohol 8+2; 24 mg/kg; oral; Male; Harlan Sprague Dawley.
Series [20] relates to Rat. In words: concentration in plasma after dosing. Particulars: dosed: Fluorotelomer alcohol 8+2, 12 mg/kg, iv, Male, F344. This is another data set of the same source.
For series [21], the system named is Rat. In words: concentration in brain after dosing. The conditions noted are these: 1 h; dosed: Fluorotelomer alcohol 8+2; 24 mg/kg; oral; Male; Harlan Sprague Dawley. This is another data set of the same source.
Series [22] concerns Rat. In words: concentration in plasma after dosing. The conditions noted are these: dosed: Fluorotelomer alcohol 8+2, 12 mg/kg, iv, Male, F344. This is another data set of the same source.
The subject of series [23] is Rat. In words: concentration in plasma after dosing. Particulars: 5 min; dosed: Di-n-butyl phthalate; 20 mg/kg; iv; Male; Sprague-Dawley.
Series [24] deals with Rat. In words: concentration in plasma after dosing. The conditions noted are these: 6 h; dosed: Di-n-butyl phthalate; 100 mg/kg; oral; Male; Sprague-Dawley.
The test system of series [25] is Rat. In words: concentration in plasma after dosing. The conditions noted are these: 40 min; dosed: Di-n-butyl phthalate; 50 mg/kg; oral; Male; Sprague-Dawley.
For series [26], the system named is Rat. In words: concentration in plasma after dosing. Particulars: 10 min; dosed: Di-n-butyl phthalate; 20 mg/kg; iv; Male; Sprague-Dawley.
In series [27] the test system is Rat. In words: concentration in plasma after dosing. Particulars: 3 h; dosed: Di-n-butyl phthalate; 100 mg/kg; oral; Male; Sprague-Dawley.
Series [28] has as its system Rat. In words: concentration in plasma after dosing. Particulars: 0.5 h; dosed: Di-n-butyl phthalate; 50 mg/kg; oral; Male; Sprague-Dawley.
Series [29] has as its system Rat. In words: concentration in brain after dosing. Particulars: 1848 h; dosed: Perfluorodecanoic acid; 10 mg/kg; oral; Male; Harlan Sprague Dawley.
The test system of series [30] is Rat. In words: concentration in liver after dosing. Particulars: 1848 h; dosed: Perfluorodecanoic acid; 10 mg/kg; oral; Female; Harlan Sprague Dawley.
For series [31], the system named is Rat. In words: concentration in plasma after dosing. The conditions noted are these: 9 h; dosed: Primidone; 80 mg/kg; oral; Male; F344.
The test system of series [32] is Rat. In words: concentration in heart after dosing. Particulars: 4 h; dosed: Thiodiglycolic Acid; 20 mg/kg; iv; Female; Harlan Sprague Dawley.
Series [33] relates to Rat. In words: concentration in liver after dosing. The conditions noted are these: 6.667 h; dosed: Thiodiglycolic Acid; 20 mg/kg; iv; Female; Harlan Sprague Dawley.
Series [34] has as its system Rat. In words: concentration in plasma after dosing. The conditions noted are these: 3 h; dosed: Thiodiglycolic Acid; 20 mg/kg; iv; Female; Harlan Sprague Dawley.
For series [35], the system named is Rat. In words: concentration in heart after dosing. The conditions noted are these: 20 min; dosed: Thiodiglycolic Acid; 20 mg/kg; iv; Female; F344.
Series [36] deals with Rat. In words: concentration in thymus after dosing. The conditions noted are these: 10 h; dosed: Thiodiglycolic Acid; 20 mg/kg; iv; Female; Harlan Sprague Dawley.
In series [37] the test system is Rat. In words: concentration in plasma after dosing. Particulars: 2 h; dosed: Thiodiglycolic Acid; 20 mg/kg; iv; Female; Harlan Sprague Dawley.
Series [38] has as its system Rat. In words: concentration in thymus after dosing. Particulars: 3 h; dosed: Thiodiglycolic Acid; 20 mg/kg; iv; Female; Harlan Sprague Dawley.
Series [39] concerns Rat. In words: concentration in plasma after dosing. The conditions noted are these: dosed: dichloroacetic acid, 10 mg/kg, oral, Male, Harlan Sprague Dawley.

Structures are written as SMILES.

Turning to `Cc1cccc(Nc2cc(Cl)nc(SCC(=O)O)n2)c1C`, the concentration in plasma in the series with Rat [1] (1 h) was found to be 513 ng/mL; with Rat [1] (6 h) it was 169 ng/mL; in the series on Rat [2], 5440 ng/mL; in the series with Rat [3] it was 870 ng/mL; in the series with Rat [4] it was 30500 ng/mL.
As to `ClCCOCOCCCl` [Bis 2-Chloroethoxy Methane], the concentration in thymus with Rat [5] was found to be 8210 ng/g; with Rat [15], 31.7 ng/g. For the same compound, the concentration in liver is 86.1 ng/g in the series with Rat [6], 564 ng/g with Rat [7] and 135 ng/g with Rat [11]. The results for the concentration in plasma in the series with Rat [8] (20 min) and with Rat [8] (6.667 h) were 9720 ng/mL and 40.1 ng/mL, respectively. For the same compound, the concentration in heart with Rat [9] was 55.5 ng/g; in the series on Rat [10], 1380 ng/g; in the series on Rat [12], 46.5 ng/g; in the series on Rat [13], 1380 ng/g; in the series with Rat [14] it was 11400 ng/g.
As to `OCCC(F)(F)C(F)(F)C(F)(F)C(F)(F)C(F)(F)C(F)(F)C(F)(F)C(F)(F)F` [Fluorotelomer alcohol 8+2], the concentration in plasma came out at 818 ng/mL in the series with Rat [16] (0.75 h); 14.2 ng/mL in the series on Rat [16] (12 h); 1410 ng/mL in the series on Rat [20] (0.5 h); 26.1 ng/mL with Rat [20] (9 h); 662 ng/mL in the series on Rat [22] (1 h); 38.1 ng/mL in the series on Rat [22] (6 h). For the same compound, the concentration in brain with Rat [17] worked out at 2020 ng/g; with Rat [18], 1490 ng/g; in the series with Rat [21] it was 2520 ng/g. The concentration in kidney in the series with Rat [19] was determined as 985 ng/g.
As for `CCCCOC(=O)c1ccccc1C(=O)O` [Mono-n-butyl phthalate], the concentration in plasma in the series with Rat [23] is 22800 ng/mL; with Rat [24] it was 4950 ng/mL; with Rat [25], 14200 ng/mL; in the series on Rat [26], 28800 ng/mL; in the series with Rat [27], 6970 ng/mL; in the series on Rat [28], 21100 ng/mL.
In turn, `O=C(O)C(F)(F)C(F)(F)C(F)(F)C(F)(F)C(F)(F)C(F)(F)C(F)(F)C(F)(F)C(F)(F)F` [Perfluorodecanoic acid] came in with a concentration in brain with Rat [29] of 644 ng/g. The compound further returned a concentration in liver in the series on Rat [30] of 26000 ng/g.
In the series on Rat [31], `CCC1(c2ccccc2)C(=O)NC(=O)NC1=O` [Phenobarbital] registered a concentration in plasma of 6800 ng/mL.
On to `O=C(O)CSCC(=O)O` [Thiodiglycolic Acid], for which the concentration in heart in the series with Rat [32] amounted to 348 ng/g; in the series with Rat [35], 3600 ng/g. Besides, the concentration in liver in the series with Rat [33] was found to be 1600 ng/g. Besides, the concentration in plasma in the series with Rat [34] worked out at 535 ng/mL; in the series on Rat [37], 1400 ng/mL. Besides, the figures for the concentration in thymus with Rat [36] and in the series with Rat [38] were 254 ng/g and 986 ng/g, respectively.
With `O=C(O)C(Cl)Cl` [dichloroacetic acid], the concentration in plasma in the series on Rat [39] (2 min) is 398 ng/mL; with Rat [39] (0.5 h), 637 ng/mL.

The record behind these values is EPA's CvTdb concentration-time database.
